Measurements as given in patent US20170260169A1, “INHIBITORS FOR STEROID RESPONSE ELEMENTS AND RNA POLYMERASE II AND RELATED METHODS” (priority 2007, published 2017).

Tests used:
[1] = tested on: FKBP5 mRNA expression in LNCaP cells; test: DHT-induced FKBP5 mRNA in LNCaP cells; format: cell-based
p53 = p53 protein ELISA in LNCaP cells; format: cell-based; settings: polyamide 10 μM 72 hr; doxorubicin 1 μM 24 hr
Experimental: Cellular levels of RPB1 and p53 protein in LNCaP cells after treatment with 10 μM 3 for 72 h were determined by ELISA. Cells treated with DMSO vehicle and 1 μM doxorubicin for 24 h were used as control. Cellular RBP1 levels were determined by a RPB1 specific ELISA kit (Cusabio Life Sciences) according to manufacturer's instructions. Total cellular p53 protein level was determined with a pan-p53 ELISA kit (Roche) according to manufacturer's instructions. Assays were performed in biological triplicates.

RNAP2 genomic occupancy = test: ChIP-seq of RNA polymerase II occupancy in LNCaP cells; format: cell-based, human
[2] = tested on: duplex DNA containing the target site 5′-WGWWCW-3′; test: Thermal denaturation assay of DNA duplexes; format: binding; settings: duplex 5′-CGATGTTCAAGC-3′
Experimental: Polyamides 77 and 85 were incubated with duplex DNA 5′-[…]-3′ (SEQ ID NO:36), which contains the predicted target site for these compounds (underscore). Melting temperature analyses were performed on a Varian Cary 100 spectrophotometer as described (46). Melting temperatures were defined as a maximum of the first derivative of absorbance at 260 nm over the range of temperatures.
Thermal stabilization of the DNA oligo 5′-[…]-3′ (SEQ ID NO:37) by 77-80 (target sequence underlined) was determined as previously described (26).

[3] = tested on: transcripts in DHT-stimulated LNCaP cells; settings: previous studies (12); cited from earlier work
[4] = cited from earlier work
[5] = tested on: AR occupancy at the FKBP5 intronic enhancer; test: Chromatin immunoprecipitation with anti-AR, FKBP5 fifth intron enhancer; format: cell-based; settings: 10 μM
[6] = Multiple-dose subcutaneous injections, male C57BL/6J mice; format: in vivo; settings: 1 mg/kg SC every 3 days
Summary of the method: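 Eight-week-old male C57BL/6J mice (n=3 per group) received 1 mg/kg polyamide subcutaneously every 3 days for three injections and were sacrificed two days after the last dose. Serum was collected by retroorbital bleeding for analysis, and two mice per group underwent histopathology.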

[7] = tested on: AR occupancy at the PSA promoter and enhancer; test: Chromatin immunoprecipitation with anti-AR, PSA promoter and enhancer; format: cell-based
Experimental: LNCaP cells were plated in 15-cm diameter plates at a density of 2×10^6 cells per plate. Media, polyamide treatment, time course, and DHT stimulation were the same as described above. After the 16-h DHT treatment, cells were treated with 1% formaldehyde for 10 min. Chromatin was isolated and sheared. Antibodies to AR (AR-20, Santa Cruz Biotechnology, Santa Cruz, Calif.) were used to immunoprecipitate AR-bound DNA fragments. Crosslinks were reversed, and PCRs using primers targeted to the regions of interest were used to assess enrichment of bound fragments as compared with mock-precipitated (no antibody) controls. PCRs were monitored with SYBR Green PCR Master Mix (Applied Biosystems) on an ABI 7300 instrument. Primer sequences and a more detailed experimental protocol are available upon request.

[8] = Serum circulation after subcutaneous injection in C57BL/6 mice; format: in vivo; settings: 120 nmol, 5% DMSO/PBS
Experimental: To investigate if polyamide 77 could be detected in peripheral blood after SC injections, 120 nmol of 77 (in 5% DMSO/PBS) was injected into the right flank of four C57BL/6 mice. Blood was collected from anesthetized mice via retroorbital collection at 5 minutes, 4 h, and 12 h after injection, then processed by methods previously described and analyzed by HPLC (35). For measurement of serum PSA (KLK3) and uric acid, blood was collected from anesthetized mice via retroorbital collection at experimental endpoint and serum was separated from blood by centrifugation. Serum PSA (KLK3) was measured by ELISA (R&D systems) according to manufacturer's instructions. Uric acid was measured as described (36).
We synthesized four structurally related polyamides (FIG. 28) that have an identical Py-Im sequence ImPyPyPy-γ-ImPyPyPy-NHMe-IPA.

LNCaP cells = test: Cell viability WST-1 assay; format: cell-based; settings: LNCaP
Experimental: LNCaP cells were plated in clear bottom 96 well plates at 5,000-7,500 cells per well. The cells were allowed to adhere for 24-36 h before compounds were added in fresh media. Cell viability was determined by the WST-1 assay (Roche) for 77 and 85 after 24 h or 72 h incubation with cells. Cells in cytotoxicity rescue experiments were treated with 85 alone or with 3 μM for 24 h.
LNCaP cells were plated in clear bottom 96-well plates at 5,000-7,500 cells per well and allowed to adhere for 36-48 h. Compounds were then added in fresh media. Cell metabolic activity was determined by the WST-1 assay (Roche) after 72-h incubation with cells. Quantification was performed on a Perkin Elmer Victor 3 plate reader. Assays were performed in biological triplicates.

[9] = Liver microsomal stability, mouse; settings: 1 μM, Mouse, 1 hr at 37° C., 1 mg/ml microsomes
Experimental: Briefly, each polyamide was incubated with 1 mg/ml human or mouse microsomes at 37° C. The reaction was incubated in 100 mM KH2PO4, 2 mM NADPH, 3 mM MgCl2 at pH 7.4. Samples were also incubated in the absence of NADPH to detect NADPH-free degradation. After 60 min the samples were mixed with an equal volume of ice cold methanol stop solution. The mixture was allowed to sit on ice for at least 10 min and mixed with an equal volume of water. The samples were then centrifuged to remove the precipitates and the samples were analyzed by LC/MS/MS. Data represents % remaining by comparing with time zero concentration. The experiments were performed in duplicate.

ARE of the PSA promoter = test: Quantitative DNase I footprint titration on pAR-PSA fragment; format: binding
Text: Plasmid pAR-PSA was constructed by inserting a 70-bp sequence from the PSA promoter containing the ARE into pUC19 plasmid. […] Detailed experimental protocols are reported elsewhere (44). The proximal PSA promoter contains the ARE [NT] ID NO:15) (FIG. 8A). […] However, 1 is observed to bind the sequence [NT]≈12 bp 5' to the ARE, which is an expected binding site for this molecule.

GILZ enhancer GRE1 = test: Quantitative DNase I footprint titration on pKAM5 fragment, GRE1; format: binding
Experimental: Detailed experimental protocols are reported elsewhere (44). The GILZ enhancer contains two GREs separated by 22 base pairs (46). GRE 1 is 5'-[NT]=3' (SEQ ID NO:5) and GRE 2 is […] ID NO:7). The DNA binding of polyamides 1 and 2 on these sequences was measured by quantitative DNase I footprint. […] […]).

SMILES: CN(CCCNC(=O)c1cccc(C(=O)O)c1)CCCNC(=O)c1cc(NC(=O)c2cc(NC(=O)c3cc(NC(=O)c4nc(NC(=O)[C@H](N)CCNC(=O)c5cc(NC(=O)c6cc(NC(=O)c7cc(NC(=O)c8nccn8C)cn7C)cn6C)cn5C)cn4C)cn3C)cn2C)cn1C [Polyamide 1, ImPyPyPy-2-(R)H^2Nγ-ImPyPyPy-NHMe-IPA]
- inhibition of DHT-induced expression of FKBP5 [1]: ≈ 60%
- cellular level of p53 protein (p53): increases
- RNAP2 occupancy at enhancer loci (RNAP2 genomic occupancy; DHT + 77): did not significantly change
- RNAP2 occupancy across genic regions (RNAP2 genomic occupancy; DHT + 77, 48 h): global decrease of RNAP2 occupancy across genic regions
- DNA thermal stability analysis [2]: comparable DNA binding
- share of DHT-induced transcripts affected [3]: approximately 30%
- animal toxicity after single subcutaneous administration ([4]; female C57BL/6J mice, 77 at 2.5 and 5 mg/kg, 80 at 2.3 and […]): did not adversely affect the animals
- weight loss ([4]; female mice, 10 mg/kg SC): greater than 15%
- doses without toxicity ([4]; mouse, in vivo): less than 10 mg/kg
- occupancy of AR at the FKBP5 intronic enhancer [5]: decreased occupancy
- liver and kidney histopathology [6]: mild multifocal hepatocellular necrosis and apoptosis in the liver and mild variable tubular attenuation, karyomegaly and epithelial necrosis and apoptosis in the kidney
- liver and kidney serum markers [6]: elevated AST and ALT
- weight and physical morbidity ([6]; three injections, listed as 77): no loss in weight or physical morbidities
- occupancy of AR at the PSA promoter and enhancer ([7]; 1 μM as printed): decreased occupancy
- AR occupancy at the PSA promoter and enhancer ([7]; 10 μM, FIG. 9 legend): decreased
- circulation after SC injection [8]: detectable circulation
- cytotoxicity after 24 h treatment (LNCaP cells): minimal cytotoxicity is seen at 24 h
- Mean remaining parent NADPH-free [9]: 96.8%
- Mean remaining parent with NADPH [9]: 95.2%
- binding at the other half-site of the ARE (ARE of the PSA promoter; 5′-AGTGCT-3′, single base pair mismatch site): Minimal binding
- Ka (ARE of the PSA promoter; ARE consensus half-site 5′-AGAACA-3′): 8.3±1.7×10^9 M^−1
- Ka (ARE of the PSA promoter; ARE half site 5′-AGAACA-3′, FIG. 8 legend): 8.3±1.7×10^9
- Kd (ARE of the PSA promoter; half-site of the ARE of the PSA promoter): subnanomolar
- Ka (GILZ enhancer GRE1): 1.9±0.8×10^10
